{"source": "ChEMBL document CHEMBL5352457", "about": "“Discovery of orally active 1,4,5,6,8-pentaazaacenaphthylens as novel, selective, and potent covalent BTK inhibitors for the treatment of rheumatoid arthritis” (Eur J Med Chem, 2023)", "key": {"physchem [1]": {"assay": "physchem", "conditions": "buffer, pH 7.4"}, "in vivo [2]": {"assay": "in vivo", "conditions": "Sprague-Dawley, rat, plasma, po, 10 mg/kg"}, "in vivo [3]": {"assay": "in vivo", "conditions": "Sprague-Dawley, rat, po, 10 mg/kg"}, "in vivo [4]": {"assay": "in vivo", "conditions": "Sprague-Dawley, rat, po, 10 mg/kg", "remark": "listed apart in the source"}, "in vivo [5]": {"assay": "in vivo", "conditions": "Sprague-Dawley, rat, po, 10 mg/kg", "remark": "listed apart in the source"}, "in vivo [6]": {"assay": "in vivo", "conditions": "Sprague-Dawley, rat, po, 10 mg/kg", "remark": "listed apart in the source"}, "in vivo [7]": {"assay": "in vivo", "conditions": "Sprague-Dawley, rat, iv, 1 mg/kg"}, "in vivo [8]": {"assay": "in vivo", "conditions": "Sprague-Dawley, rat, iv, 1 mg/kg", "remark": "listed apart in the source"}, "physchem [9]": {"assay": "physchem", "conditions": "buffer, pH 7"}, "in vivo [10]": {"assay": "in vivo", "conditions": "Sprague-Dawley, rat, iv, 1 mg/kg", "remark": "listed apart in the source"}}, "data": [{"smiles": "C=CC(=O)N1CC[C@@H](N2N=C(Nc3ccc(Oc4ccccc4)cc3)c3c[nH]c4ncnc2c34)C1", "values": [{"measurement": "remaining at 24 h", "setting": "physchem [1]", "result": 80.2, "unit": "%"}, {"measurement": "concentration at 1 h", "setting": "in vivo [2]", "result": 125, "unit": "nM"}, {"measurement": "Tmax at 24 h", "setting": "in vivo [3]", "result": 1, "unit": "h"}, {"measurement": "AUC at 24 h", "setting": "in vivo [4]", "result": 164, "unit": "ng·h/mL"}, {"measurement": "bioavailability at 24 h", "setting": "in vivo [5]", "result": 3.6, "unit": "%"}, {"measurement": "Cmax at 24 h", "setting": "in vivo [6]", "result": 52.5, "unit": "ng/mL"}, {"measurement": "AUC at 24 h", "setting": "in vivo [7]", "result": 454, "unit": "ng·h/mL"}, {"measurement": "clearance at 24 h", "setting": "in vivo [8]", "result": 36.8, "unit": "mL/min/kg"}, {"measurement": "solubility", "setting": "physchem [9]", "result": 174, "unit": "µM"}, {"measurement": "Vd at 24 h", "setting": "in vivo [10]", "result": 1.67, "unit": "L/kg"}]}]}
